Measurements reported in patent publication US5939098A, “Cancer treatment with temozolomide” (Schering Corporation, priority 1997, dated 1999).

Columns and labels:
[1] = side effects of temozolomide administration; assay type: in vivo, patient; conditions: can be alleviated by an anti-emetic
Procedure: It is preferred that the anti-emetic Ondansetron be given p.o. in a dose of about 8 mg about 30 minutes before temozolomide administration. Of course other anti-emetics such as Hasaldol, Benadryl, and Ativan may also be used as needed.

[2] = design: species or system patient; conditions: human, in vivo
Procedure: Prior to this invention it was generally believed that administering temozolomide to a patient having food in their stomach or to a patient who consumed food too soon before or after administering of the temozolomide would interfere with the bioiavailability of the temozolomide. A fasting of about 8 hours, before administering of temozolomide and 4 hours after receiving temozolomide was believed necessary. Since two twelve-hour fasting periods per day would obviously be unacceptable, it was believed that temozolomide could be administered a maximum of once per day. […] Therefore long fasting periods before and after administration of temozolomide are not necessary. Dosing with temozolomide more than once per day may improve the effectiveness of the treatment. This is so because increasing the frequency of dosing may deplete the O^6 -aklylguanine DNA alkyltransferase more effectively and maintain the depletion of this repair enzyme, resulting therefore in better effectiveness of the drug.

advanced melanoma [3] = conditions: patients having advanced melanoma; Newlands ES, et al. Br J Cancer 65 (2), 1992; cited from earlier work
advanced melanoma [4] = conditions: patients with advanced melanoma; Journal of Clinical Oncology, Vol 13, No. 4, 1995, pp 910-913; cited from earlier work

Cn1nnc2c(C(N)=O)ncn2c1=O [temozolomide, 3,4-dihydro-3-methyl-4-oxoimidazo-[5,1-d]1,2,3,4-tetrazin-8-carboximide]
common, but tolerable side effect [1]: nausea and vomiting | Area Under Curve (AUC) for those fed as % of AUC for those fasted [2]: about 90% | clinical responses achieved, % of patients (advanced melanoma [3]): 17% | clinical response achieved, % of patients (advanced melanoma [4]): 21%
